Laboratory results as given in ChEMBL document CHEMBL5528028, “Discovery of benzopyridone cyanoacetates as new type of potential broad-spectrum antibacterial candidates” (Eur J Med Chem, 2024).
≈ marks a conversion by molar mass, not a printed value.

Assays:
Format in all cases: functional
[1] = tested on: Acinetobacter baumannii; assay: Antibacterial activity against Acinetobacter baumannii assessed growth inhibition by micro broth dilution method
[2] = tested on: Escherichia coli; assay: Antibacterial activity against Escherichia coli assessed growth inhibition by micro broth dilution method
[3] = tested on: Pseudomonas aeruginosa; assay: Antibacterial activity against Pseudomonas aeruginosa assessed growth inhibition by micro broth dilution method
[4] = tested on: Pseudomonas aeruginosa; assay: Antibacterial activity against Pseudomonas aeruginosa ATCC 27853 assessed growth inhibition by micro broth dilution method
[5] = tested on: Enterococcus faecalis; assay: Antibacterial activity against Enterococcus faecalis assessed growth inhibition by micro broth dilution method
[6] = tested on: Staphylococcus aureus; assay: Antibacterial activity against Staphylococcus aureus ATCC 25923 assessed growth inhibition by micro broth dilution method
[7] = tested on: Klebsiella pneumoniae; assay: Antibacterial activity against Klebsiella pneumonia assessed growth inhibition by micro broth dilution method
[8] = tested on: Staphylococcus aureus; assay: Antibacterial activity against Staphylococcus aureus assessed growth inhibition by micro broth dilution method
[9] = tested on: Staphylococcus aureus; assay: Antibacterial activity against methicillin-resistant Staphylococcus aureus assessed growth inhibition by micro broth dilution method
[10] = tested on: Staphylococcus aureus; assay: Antibacterial activity against Staphylococcus aureus ATCC 29213 assessed growth inhibition by micro broth dilution method
[11] = tested on: Escherichia coli; assay: Antibacterial activity against Escherichia coli ATCC 25922 assessed growth inhibition by micro broth dilution method

Compound	MIC [1] [µg/mL]	MIC [2] [µg/mL]	MIC [3] [µg/mL]	MIC [4] [µg/mL]	MIC [5] [µg/mL]	MIC [6] [µg/mL]	MIC [7] [µg/mL]	MIC [8] [µg/mL]	MIC [9] [µg/mL]	MIC [10] [µg/mL]	MIC [11] [µg/mL]
CCOC(=O)c1cn(Cc2ccc(F)cc2F)c2cc(C(C#N)C(=O)OCC)c(F)cc2c1=O (stereo not drawn)	32 (≈ 67.7 µM)	16 (≈ 33.9 µM)	2 (≈ 4.23 µM)	4 (≈ 8.47 µM)	16 (≈ 33.9 µM)	4 (≈ 8.47 µM)	4 (≈ 8.47 µM)	8 (≈ 16.9 µM)	32 (≈ 67.7 µM)	4 (≈ 8.47 µM)	16 (≈ 33.9 µM)
CCOC(=O)c1cn(Cc2cccc(Cl)c2)c2cc(F)c(F)cc2c1=O	4 (≈ 10.6 µM)	1 (≈ 2.65 µM)	256 (≈ 678 µM)	32 (≈ 84.7 µM)	2 (≈ 5.29 µM)	64 (≈ 169 µM)	32 (≈ 84.7 µM)	64 (≈ 169 µM)	256 (≈ 678 µM)	128 (≈ 339 µM)	64 (≈ 169 µM)
NC1CCN(c2c(F)cc3c(=O)c(C(=O)O)cn(C4CC4)c3c2Cl)C1 (stereo not drawn) [CLINAFLOXACIN]	0.5 (≈ 1.37 µM)	0.25 (≈ 0.683 µM)	0.5 (≈ 1.37 µM)	0.5 (≈ 1.37 µM)	4 (≈ 10.9 µM)	0.5 (≈ 1.37 µM)	0.5 (≈ 1.37 µM)	0.5 (≈ 1.37 µM)	1 (≈ 2.73 µM)	0.5 (≈ 1.37 µM)	0.25 (≈ 0.683 µM)
CCOC(=O)c1cn(CC(=O)N2CCCCC2)c2cc(F)c(F)cc2c1=O	64 (≈ 169 µM)	16 (≈ 42.3 µM)	32 (≈ 84.6 µM)	64 (≈ 169 µM)	64 (≈ 169 µM)	128 (≈ 338 µM)	256 (≈ 677 µM)	256 (≈ 677 µM)	256 (≈ 677 µM)	64 (≈ 169 µM)	64 (≈ 169 µM)
CCOC(=O)C(C#N)c1c(F)cc2c(=O)c(C(=O)O)cn(CC)c2c1F (stereo not drawn)	0.5 (≈ 1.37 µM)	64 (≈ 176 µM)	64 (≈ 176 µM)	4 (≈ 11 µM)	128 (≈ 351 µM)	32 (≈ 87.8 µM)	4 (≈ 11 µM)	16 (≈ 43.9 µM)	16 (≈ 43.9 µM)	32 (≈ 87.8 µM)	2 (≈ 5.49 µM)
CCOC(=O)c1cn(CCN2CCOCC2)c2cc([C-](C#N)C(=O)OCC)c(F)cc2c1=O.[Na+] (stereo not drawn)	256	256	256	256	256	256	256	256	256	256	256
CCOC(=O)c1cn(C)c2cc([C-](C#N)C(=O)OCC)c(F)cc2c1=O.[Na+] (stereo not drawn)	32	32	32	32	32	1	32	128	64	64	16
CCOC(=O)C(C#N)c1cc2c(cc1F)c(=O)c(C(=O)O)cn2CC=C(C)C (stereo not drawn)	1 (≈ 2.59 µM)	32 (≈ 82.8 µM)	8 (≈ 20.7 µM)	1 (≈ 2.59 µM)	64 (≈ 166 µM)	4 (≈ 10.4 µM)	0.25 (≈ 0.647 µM)	4 (≈ 10.4 µM)	8 (≈ 20.7 µM)	4 (≈ 10.4 µM)	1 (≈ 2.59 µM)
CCOC(=O)c1cn(CC2CC2)c2cc(F)c(F)cc2c1=O	256 (≈ 833 µM)	16 (≈ 52.1 µM)	32 (≈ 104 µM)	256 (≈ 833 µM)	128 (≈ 417 µM)	128 (≈ 417 µM)	128 (≈ 417 µM)	128 (≈ 417 µM)	256 (≈ 833 µM)	128 (≈ 417 µM)	64 (≈ 208 µM)
CCOC(=O)c1cn(CC(=O)N2CCN(C(=O)OC(C)(C)C)CC2)c2cc(F)c(F)cc2c1=O	64 (≈ 133 µM)	4 (≈ 8.34 µM)	64 (≈ 133 µM)	32 (≈ 66.7 µM)	64 (≈ 133 µM)	128 (≈ 267 µM)	256 (≈ 534 µM)	256 (≈ 534 µM)	64 (≈ 133 µM)	64 (≈ 133 µM)	64 (≈ 133 µM)
CCOC(=O)C(C#N)c1cc2c(cc1F)c(=O)c(C(=O)O)cn2Cc1ccc(Cl)cc1Cl (stereo not drawn)	1 (≈ 2.1 µM)	16 (≈ 33.5 µM)	4 (≈ 8.38 µM)	2 (≈ 4.19 µM)	8 (≈ 16.8 µM)	1 (≈ 2.1 µM)	0.25 (≈ 0.524 µM)	1 (≈ 2.1 µM)	2 (≈ 4.19 µM)	2 (≈ 4.19 µM)	0.5 (≈ 1.05 µM)
CCOC(=O)c1cn(Cc2ccc(Cl)cc2Cl)c2cc(F)c(F)cc2c1=O	256 (≈ 621 µM)	16 (≈ 38.8 µM)	128 (≈ 311 µM)	256 (≈ 621 µM)	256 (≈ 621 µM)	256 (≈ 621 µM)	0.5 (≈ 1.21 µM)	128 (≈ 311 µM)	256 (≈ 621 µM)	256 (≈ 621 µM)	32 (≈ 77.6 µM)
CCOC(=O)c1cn(Cc2ccc(Cl)cc2)c2cc([C-](C#N)C(=O)OCC)c(F)cc2c1=O.[Na+] (stereo not drawn)	64	0.5	16	2	1	1	2	64	64	2	1
CCCCCn1cc(C(=O)OCC)c(=O)c2cc(F)c(F)cc21	64 (≈ 198 µM)	16 (≈ 49.5 µM)	64 (≈ 198 µM)	256 (≈ 792 µM)	64 (≈ 198 µM)	256 (≈ 792 µM)	64 (≈ 198 µM)	32 (≈ 99 µM)	256 (≈ 792 µM)	64 (≈ 198 µM)	64 (≈ 198 µM)
CCCCCCCCn1cc(C(=O)O)c(=O)c2cc(F)c(C(C#N)C(=O)OCC)cc21 (stereo not drawn)	1 (≈ 2.32 µM)	32 (≈ 74.3 µM)	4 (≈ 9.29 µM)	1 (≈ 2.32 µM)	16 (≈ 37.2 µM)	1 (≈ 2.32 µM)	0.25 (≈ 0.581 µM)	4 (≈ 9.29 µM)	8 (≈ 18.6 µM)	4 (≈ 9.29 µM)	0.5 (≈ 1.16 µM)
CCOC(=O)c1cn(C2CC2)c2cc(C(C#N)C(=O)OCC)c(F)cc2c1=O (stereo not drawn)	32 (≈ 82.8 µM)	32 (≈ 82.8 µM)	8 (≈ 20.7 µM)	64 (≈ 166 µM)	32 (≈ 82.8 µM)	8 (≈ 20.7 µM)	8 (≈ 20.7 µM)	16 (≈ 41.4 µM)	128 (≈ 331 µM)	32 (≈ 82.8 µM)	32 (≈ 82.8 µM)
CCOC(=O)c1cn2c3c(c([C-](C#N)C(=O)OCC)c(F)cc3c1=O)OC[C@@H]2C.[Na+] (stereo partly drawn)	128	64	256	64	128	4	256	256	128	256	64
CCCCn1cc(C(=O)OCC)c(=O)c2cc(F)c([C-](C#N)C(=O)OCC)cc21.[Na+] (stereo not drawn)	16	8	8	8	16	2	16	64	32	8	16
CCOC(=O)c1cn(Cc2ccc(Cl)c(Cl)c2)c2cc(C(C#N)C(=O)OCC)c(F)cc2c1=O (stereo not drawn)	2 (≈ 3.96 µM)	8 (≈ 15.8 µM)	0.5 (≈ 0.989 µM)	2 (≈ 3.96 µM)	16 (≈ 31.7 µM)	1 (≈ 1.98 µM)	1 (≈ 1.98 µM)	4 (≈ 7.92 µM)	8 (≈ 15.8 µM)	0.25 (≈ 0.495 µM)	4 (≈ 7.92 µM)
CCOC(=O)c1cn(Cc2cccc(Cl)c2)c2cc([C-](C#N)C(=O)OCC)c(F)cc2c1=O.[Na+] (stereo not drawn)	64	0.5	16	2	1	1	4	128	64	2	2
CCCCCn1cc(C(=O)OCC)c(=O)c2cc(F)c([C-](C#N)C(=O)OCC)cc21.[Na+] (stereo not drawn)	4	4	4	4	4	1	4	32	32	4	1
CCOC(=O)C(C#N)c1cc2c(cc1F)c(=O)c(C(=O)O)cn2CC (stereo not drawn)	8 (≈ 23.1 µM)	32 (≈ 92.4 µM)	8 (≈ 23.1 µM)	4 (≈ 11.6 µM)	64 (≈ 185 µM)	4 (≈ 11.6 µM)	1 (≈ 2.89 µM)	4 (≈ 11.6 µM)	4 (≈ 11.6 µM)	16 (≈ 46.2 µM)	0.5 (≈ 1.44 µM)
CCCCCCCCn1cc(C(=O)OCC)c(=O)c2cc(F)c(F)cc21	64 (≈ 175 µM)	4 (≈ 10.9 µM)	64 (≈ 175 µM)	256 (≈ 701 µM)	64 (≈ 175 µM)	128 (≈ 350 µM)	64 (≈ 175 µM)	4 (≈ 10.9 µM)	256 (≈ 701 µM)	16 (≈ 43.8 µM)	64 (≈ 175 µM)
CCOC(=O)c1cn(Cc2ccc(Cl)c(Cl)c2)c2cc(F)c(F)cc2c1=O	256 (≈ 621 µM)	8 (≈ 19.4 µM)	32 (≈ 77.6 µM)	64 (≈ 155 µM)	128 (≈ 311 µM)	256 (≈ 621 µM)	0.5 (≈ 1.21 µM)	16 (≈ 38.8 µM)	256 (≈ 621 µM)	256 (≈ 621 µM)	2 (≈ 4.85 µM)
CCOC(=O)c1cn(Cc2ccc(Cl)cc2)c2cc(F)c(F)cc2c1=O	4 (≈ 10.6 µM)	1 (≈ 2.65 µM)	256 (≈ 678 µM)	256 (≈ 678 µM)	64 (≈ 169 µM)	256 (≈ 678 µM)	32 (≈ 84.7 µM)	64 (≈ 169 µM)	256 (≈ 678 µM)	256 (≈ 678 µM)	128 (≈ 339 µM)
CCCCCCn1cc(C(=O)OCC)c(=O)c2cc(F)c(F)cc21	64 (≈ 190 µM)	8 (≈ 23.7 µM)	64 (≈ 190 µM)	256 (≈ 759 µM)	64 (≈ 190 µM)	128 (≈ 379 µM)	64 (≈ 190 µM)	8 (≈ 23.7 µM)	256 (≈ 759 µM)	128 (≈ 379 µM)	64 (≈ 190 µM)
CCOC(=O)c1cn(Cc2ccccc2)c2cc(C(C#N)C(=O)OCC)c(F)cc2c1=O (stereo not drawn)	8 (≈ 18.3 µM)	32 (≈ 73.3 µM)	0.5 (≈ 1.15 µM)	2 (≈ 4.58 µM)	16 (≈ 36.7 µM)	2 (≈ 4.58 µM)	2 (≈ 4.58 µM)	8 (≈ 18.3 µM)	32 (≈ 73.3 µM)	2 (≈ 4.58 µM)	16 (≈ 36.7 µM)
CCOC(=O)c1cn(Cc2ccc(F)cc2F)c2cc(F)c(F)cc2c1=O	16 (≈ 42.2 µM)	16 (≈ 42.2 µM)	64 (≈ 169 µM)	256 (≈ 675 µM)	256 (≈ 675 µM)	256 (≈ 675 µM)	0.25 (≈ 0.659 µM)	256 (≈ 675 µM)	256 (≈ 675 µM)	256 (≈ 675 µM)	128 (≈ 337 µM)
